Measured values from paper PMC12431657, “Discovery and mechanistic insights of dibenzoylmethane as a broad spectrum inhibitor of coronavirus” (PLOS Pathogens, 2025).
Where “and” joins values, the source holds several entries; their conditions need not be identical. Equal values may be shown once.

How the values were obtained:
[1] = Metabolic stability in human liver microsomes; format: in vitro ADME; conditions: average, read-out: T1/2 of metabolism
Description: Thus, a pharmacokinetic study was performed for DBM in Sprague-Dawley (SD) rats. Following oral administration of menstruum or DBM at 200 mpk, blood samples from the rats were collected at 2 min, 5 min, 15 min, 30 min, 1 h, 2 h, 4 h, 8 h, and 24 h posttreatment. The concentration of DBM in the plasma was determined by liquid chromatography with tandem mass spectrometry (LC-MS/MS). The minimum effective concentration (MEC) line in the graph represents the EC95 value of DBM (Fig 3C). […] To analyse the metabolic stability of DBM, we incubated human and mouse liver microsomes with DBM. The T1/2 of metabolism was an average of 13.92 min in human liver microsomes and 4.84 min in mouse liver microsomes.

HCoV-OC43 [2] = assay: Time-of-addition assay; format: cell-based; conditions: for time-of-addition, viral inhibition: replicates
Description: (§1) To obtain further insight into the stage at which DBM inhibits the replication of HCoV-OC43 and other HCoVs, RD cells were incubated with compounds, including DBM, remdesivir (RDV), and chloroquine (CQ), at different stages of viral infection. Viral RNA from the supernatant was extracted and quantitatively analysed via qRT-PCR. […] For the viral binding assay, cells were cultured in the presence or absence of DBM at different concentrations for 1 hour before being infected with HCoV-OC43 at an MOI of 50, and then were placed on ice for 2 hours for the viral particles to bind to the membrane of the host cells, followed by washing with PBS. […] In addition to binding to receptors from host cells, the spike proteins of HCoV-OC43 could also trigger membrane fusion when HCoV-OC43 spike plasmid-transfected 293T cells were seeded together with RD cells as target cells, and the addition of DBM had no effect on this process (S5C Fig). To examine whether DBM inhibits viral internalisation, cells were inoculated with HCoV-OC43 for 1 hour on ice before being treated with either DBM or DMSO, and CQ was included to prevent endosomal acidification. Subsequently, HCoV-OC43 nucleocapsid proteins were immunostained with CoraLite Plus 488 to assess viral internalisation via confocal microscopy. […] To determine whether DBM influences viral release, we quantified viral RNA both intracellularly and in the supernatant.
To evaluate the effects of DBM on the life cycle of HCoV-229E and HCoV-OC43, fresh culture medium containing 0.6 μM DBM, 0.1 μM remdesivir (RDV), or 10 μM chloroquine (CQ) was supplemented with preseeded cells at different time points relative to infection (entry group: 0 to –2 hours; postinfection group: 2–12 hours; and full-time group: 0 to –12 hours). DMSO served as the control. At 24 hours postinfection, the number of intracellular virus RNA copies was quantified by qRT-PCR as previously described.

HCoV-OC43 [3] = assay: Viral binding assay; format: cell-based; conditions: MOI of 50, on ice 2 hours
Description: as §1, with “Fig).” for “Fig). To examine whether DBM inhibits viral internalisation, cells were inoculated with HCoV-OC43 for 1 hour on ice before being treated with either DBM or DMSO, and CQ was included to prevent endosomal acidification. Subsequently, HCoV-OC43 nucleocapsid proteins were immunostained with CoraLite Plus 488 to assess viral internalisation via confocal microscopy.”
The cells were seeded onto 24-well plates and incubated overnight at 37 °C. […] The cells were washed three times with PBS before total RNA was extracted and analysed by qRT-PCR as previously described.

HCoV-OC43 spike protein = assay: Cell-cell fusion assay (HCoV-OC43 spike); format: cell-based; conditions: spike-transfected 293T cells with RD cells
Description: as §1, with “acidification.” for “acidification. Subsequently, HCoV-OC43 nucleocapsid proteins were immunostained with CoraLite Plus 488 to assess viral internalisation via confocal microscopy.”, “supernatant. […]” for “supernatant.”

HCoV-OC43 [4] = assay: Viral release (intracellular versus supernatant viral RNA); format: cell-based
Description: To obtain further insight into the stage at which DBM inhibits the replication of HCoV-OC43 and other HCoVs, RD cells were incubated with compounds, including DBM, remdesivir (RDV), and chloroquine (CQ), at different stages of viral infection. Viral RNA from the supernatant was extracted and quantitatively analysed via qRT-PCR. […] For the viral binding assay, cells were cultured in the presence or absence of DBM at different concentrations for 1 hour before being infected with HCoV-OC43 at an MOI of 50, and then were placed on ice for 2 hours for the viral particles to bind to the membrane of the host cells, followed by washing with PBS. […] To determine whether DBM influences viral release, we quantified viral RNA both intracellularly and in the supernatant.
A) Efficacy of DBM, remdesivir (RDV), and chloroquine (CQ) in inhibiting virus replication at different stages of administration. […] C) Fluorescence images of cell-cell fusion induced by the transient expression of HCoV-OC43 spike proteins and eGFP (green) in RD cells. […] D) Confocal fluorescence microscopy images showing HCoV-OC43 internalization. E) Quantification of intracellular viral particles per cell, based on images obtained from confocal fluorescence microscopy. […] Data were statistically analysed with Student’s T test. *: p ≤ 0.05, **: p ≤ 0.01, ***: p ≤ 0.001, ****: p ≤ 0.0001; ns, not significant. […]

HCoV-OC43 [5] = conditions: DBM 400 mpk QD

## O=C(CC(=O)c1ccccc1)c1ccccc1 [DBM, dibenzoylmethane]
[1]
  half-life: 13.9 min
HCoV-OC43 [2]; Entry
  time-of-addition, viral inhibition: 44.1 and 45.1 and 75.5
HCoV-OC43 [2]; Full-Time
  time-of-addition, viral inhibition: 98.8 and 98.7 (2×)
HCoV-OC43 [2]; Post-Entry
  time-of-addition, viral inhibition: 79.3 and 93.6 and 93.3
HCoV-OC43 [2]; RD cells, 0.6 μM DBM
  HCoV-OC43 infection, compound incubated before and during virus infection: did not significantly inhibit
  replication of HCoV-OC43, compound added 2 hours after virus inoculation: potently inhibited
HCoV-OC43 [3]
  viral binding: did not interfere
HCoV-OC43 spike protein
  spike-triggered membrane fusion: had no effect
HCoV-OC43 [4]
  proportion of viral RNAs released into the supernatant versus controls: No significant difference
HCoV-OC43 [4]; DBM-treated samples, replicates
  Proportion of release of HCoV-OC43 RNA: 0.9 and 1.5 and 5.8
HCoV-OC43 [5]; VV116 25 mpk QD
  body weight loss during the experiment: did not show any body weight loss
HCoV-OC43 [5]; 5 days post infection
  viral copy numbers in the brain, lungs, and kidneys compared with the vehicle group: significantly fewer viral copy numbers
HCoV-OC43 [5]; Day 5
  viral load in the brains lower than in the vehicle group: approximately 6 logs
